AC50 and IC50 data for five molecules are collected here from ChEMBL document CHEMBL1201862, “PubChem BioAssay data set” (2004).

Calls of active or inactive are those of the source. Rule as the data show it, for most assays here: actives have a measured AC50 and inactives only a lower limit. A value given as a limit tells only on which side of the number the result lay.

A short description of assay [1]: P. falciparum Dd2 growth inhibitors, dose response, SYBR Green, cherry-picked samples (AID 1159567). In kind it is functional, cell-based.
Assay [2] in a line: Dd2 malaria parasite growth inhibition potency – SYBR Green, dry powder samples, dose response (AID 1159566).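 Also: potency for growth inhibition with lower SYBR green DNA signal.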 In kind it is functional, cell-based.
A further assay addresses Paired box protein Pax-8 (Homo sapiens, UniProt Q06710). As to the kind of experiment: PAX8 transcriptional activity inhibition in RMG-I – RMG-I cells, luciferase, cherry-pick, dose response (AID 687027).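 Also: luciferase reporter driven by Pax8 target thyroperoxidase promoter measured by SteadyGlo luminescence.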 In kind it is functional, cell-based.
The nature of assay [3]: OV-90 cell viability loss – plate reader, dry powder, SA8, PAX8 inhibitor project, dose response (AID 743149). In kind it is functional, cell-based.
The nature of assay [4]: growth inhibition of PfATP4-mutant resistant parasites – NITD609-resistant line, SYBR Green, dry powder, dose response (AID 1159571).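 Also: parasites synchronized at ring stage by sorbitol before testing.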 In kind it is functional, cell-based.
Assay [5] in a line: OVCAR4 cell viability loss – plate reader, dry powder, SA11, cytotoxicity control for PAX8 inhibitor project, dose response (AID 743150). The note with it: OVCAR-4. In kind it is functional, cell-based.
Assay [6] is described as follows: inhibitors acting on PAX2 in cells – cell-based, plate reader, dry powder samples, selectivity assay for PAX8 inhibitor project, dose response (AID 743048).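 Also: HEK293 cells carrying a WT1 promoter luciferase reporter driven by expressed Pax2; potency is for inhibition of Pax2 driven reporter signal.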 In kind it is functional.
Assay [7] can be described thus: PAX8-dependent cell viability loss – plate reader, dry powder, dose response (AID 743049). In kind it is functional, cell-based.
Assay [8] is described as follows: growth inhibition of yeast DHODH-expressing 3D7 parasites – SYBR Green, dry powder samples, dose response (AID 1159570).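 Also: parasite growth measured after 72 hours of compound exposure.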 In kind it is functional, cell-based.
Assay [9] in a line: OVCAR-3 cell viability loss – plate reader, dry powder samples, PAX8 inhibitor project, dose response (AID 743044). In kind it is functional, cell-based.
Assay [10] is described as follows: COV362 cell viability loss – plate reader, dry powder, SA12, cytotoxicity control for PAX8 inhibitor project, dose response (AID 743144). In kind it is functional, cell-based.
Assay [11] can be described thus: COV434 cell viability loss – plate reader, dry powder, SA7, cytotoxicity control for PAX8 inhibitor project, dose response (AID 743145). In kind it is functional, cell-based.
Assay [12] can be described thus: PAX5 cellular inhibition readout – cell-based, plate reader, dry powder samples, selectivity assay for PAX8 inhibitor project, dose response (AID 743047).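 Also: HEK293 cells carrying a Pax5 driven CD19 promoter luciferase reporter; potency of inhibitors that lower reporter luminescence.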 In kind it is functional.
Assay [13] is described as follows: toxicity to human HepG2 hepatoma cells – cell-based, plate reader, dry powder samples, cytotoxicity control, dose response (AID 1159569).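 Also: inhibitor potency with signal falling toward the positive control level.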 In kind it is functional.
The nature of assay [14]: toxicity to human hepatoma HepG2 cells – cell-based, cherry-picked samples, cytotoxicity control, dose response (AID 1159577). In kind it is functional.
The nature of assay [15]: T. cruzi growth inhibition in host cells, dose response, cell-based, plate reader, dry powder, set 2 (AID 652275). In kind it is functional.
Assay [16] in a line: Trypanosoma cruzi replication inhibitors in host cells – cell-based, plate reader, dry powder samples, dose response (AID 651845). In kind it is functional.
A short description of assay [17]: anti-trypanosomal activity in BESM host cells – imaging, CA-I/72 strain, bovine embryo skeletal muscle, dry powder, dose response (AID 651885). In kind it is functional, cell-based.
Assay [18] is described as follows: viability loss in CEM21 cells – cell-based, plate reader, dry powder, cytotoxicity control, dose response (AID 687026). In kind it is functional.
A short description of assay [19]: blockers of FN fibrillogenesis by fibroblasts – AH1F cells, Alexa488-FN fluorescence, cherry-picks, dose response (AID 1035475). In kind it is functional, cell-based.
The nature of assay [20]: viability loss in HEK293 kidney cells – cell-based, cherry-picks, set 5, cytotoxicity control, dose response (AID 1053117). In kind it is functional.
Assay [21] in a line: Late stage assay provider results from the probe development effort to identify selective inhibitors of heat shock protein 90 (HSP90): Absorbance-based cell proliferation assay in MCF7 cells. In kind it is functional.
Assay [22] is described as follows: Late stage assay provider results from the probe development effort to identify selective inhibitors of heat shock protein 90 (HSP90): Absorbance-based cell proliferation assay in SKBR3 cells. In kind it is functional. The following applies: SK-BR-3.

Chain of Paired box protein Pax-8 (Q06710 whole entry): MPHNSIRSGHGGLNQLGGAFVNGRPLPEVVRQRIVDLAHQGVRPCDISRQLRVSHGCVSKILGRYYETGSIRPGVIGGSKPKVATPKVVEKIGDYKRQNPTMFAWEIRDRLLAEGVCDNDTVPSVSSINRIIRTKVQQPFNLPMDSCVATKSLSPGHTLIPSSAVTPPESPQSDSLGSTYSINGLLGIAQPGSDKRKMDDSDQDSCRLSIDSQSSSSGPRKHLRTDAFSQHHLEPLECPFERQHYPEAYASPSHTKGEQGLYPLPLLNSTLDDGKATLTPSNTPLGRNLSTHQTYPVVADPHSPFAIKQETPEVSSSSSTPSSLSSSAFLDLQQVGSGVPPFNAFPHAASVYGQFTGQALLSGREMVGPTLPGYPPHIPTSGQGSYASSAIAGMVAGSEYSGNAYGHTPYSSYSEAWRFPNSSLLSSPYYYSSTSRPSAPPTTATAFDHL

Broadly, the AC50 is the concentration giving half of the maximal activity seen. Turning to `COc1cccc(C#Cc2ccc([C@H]3[C@@H](CO)N(C(=O)C4CCCCC4)[C@H]3C#N)cc2)c1`, the half-maximal activity concentration (AC50) is 0.833 µM (active) in assay [1]; 1.21 µM (active) in assay [2]; 3.39 µM (active) at Paired box protein Pax-8; 24.7 µM (active) in [3]; 2.15 µM (active) in assay [4]; 7.73 µM (active) in assay [5]. In addition, the concentration at half-maximal activity (AC50) in [6] is 16.8 µM (active); in assay [7], 8.27 µM (active); in assay [8], 1.86 µM (active); in assay [9] it was 46.6 µM (active); in [10], 23.2 µM (active); in assay [11], 17.4 µM (active). Besides, the AC50 is 11.9 µM (active) in assay [12], 46.6 µM (active) in assay [13] and 36.2 µM (active) in assay [14].
Broadly, the IC50 is the concentration that gives 50% inhibition. On to `CCCn1ncc(CN(C)C[C@H]2Oc3c(NC(=O)c4ccncc4)cccc3C(=O)N(C(C)C)C[C@@H]2C)c1C`, for which the AC50 in assay [15] and in assay [16] was 0.521 µM (active) in each case. Also, the IC50 in assay [17] was 2.92 µM (inconclusive).
`CCOc1ccc(S(=O)(=O)NC(C)c2ccncc2)cc1` (stereo not drawn): in assay [18], the AC50 was > 70 µM (inactive).
As for `C[C@@H]1CN([C@@H](C)CO)C(=O)c2cc(NC(=O)C3CCCCC3)ccc2O[C@@H]1CN(C)Cc1ccc(-c2ccccc2)cc1`, the results for the AC50 in assay [19] and in assay [20] were > 70 µM (inactive) and > 52 µM (inactive), respectively.
In the case of `O=C1OC(=O)/C(=C\NCCc2ccccc2)C=C1Br`, the IC50 in [21] is 2.1 µM (active); in [22], 3.7 µM (active).
